Data on 2 molecules can be found in ChEMBL document CHEMBL5715952 (Oncotarget, 2015).

Experiment [1] can be described thus: Ratio of IC50 for inhibition of VEGFR1/PDGFR/cKIT/RET in human RPMI-8226 cells assessed as reduction of cell viability to IC50 for inhibition of VEGFR1/PDGFR/cKIT/RET in human melphalan-resistant RPMI-8226 cells assessed as reduction of cell viability. The note with it: time 72 hrs; condition multiple myeloma.
Experiment [2] can be described thus: Inhibition of VEGFR3/PDGFR/cKIT/RET in Melphalan Resistant human RPMI-8226 cells assessed as reduction of cell growth incubated for 72 hrs by CellTiter 96 aqueous one solution cell proliferation assay. The note with it: Melphalan-resistant RPMI-8226 cell. In kind it is cell-based.
A short description of experiment [3]: Ratio of IC50 for inhibition of VEGFR2/PDGFR/cKIT/RET in human RPMI-8226 cells assessed as reduction of cell viability to IC50 for inhibition of VEGFR2/PDGFR/cKIT/RET in human melphalan-resistant RPMI-8226 cells assessed as reduction of cell viability. As to conditions: time 72 hrs; condition multiple myeloma.
A short description of experiment [4]: Inhibition of VEGFR2/PDGFR/cKIT/RET in human RPMI-8226 cells assessed as reduction of cell growth incubated for 72 hrs by CellTiter 96 aqueous one solution cell proliferation assay. It counts as cell-based. As to conditions: RPMI-8226, 72 h.
Experiment [5] is described as follows: Inhibition of VEGFR3/PDGFR/cKIT/RET in bortezomib Resistant human RPMI-8226 cells assessed as reduction of cell growth incubated for 72 hrs by CellTiter 96 aqueous one solution cell proliferation assay. It counts as cell-based. The note with it: Bortezomib-resistant RPMI-8226, 72 h.
Experiment [6] in a line: Inhibition of VEGFR2/PDGFR/cKIT/RET in human U-266 cells assessed as reduction of cell growth incubated for 72 hrs by CellTiter 96 aqueous one solution cell proliferation assay. As to conditions: U-266, 72 h. In kind it is cell-based.
Experiment [7] is described as follows: Ratio of IC50 for inhibition of VEGFR2/PDGFR/cKIT/RET in human ANBL6 cells assessed as reduction of cell viability to IC50 for inhibition of VEGFR2/PDGFR/cKIT/RET in human ANBL6/BR resistant cells assessed as reduction of cell viability. As to conditions: condition multiple myeloma.
Experiment [8] is described as follows: Ratio of IC50 for inhibition of VEGFR2/PDGFR/cKIT/RET in human RPMI-8226 cells assessed as reduction of cell viability to IC50 for inhibition of VEGFR2/PDGFR/cKIT/RET in human RPMI-8226/BR resistant cells assessed as reduction of cell viability. As to conditions: condition multiple myeloma.
The nature of experiment [9]: Inhibition of VEGFR2/PDGFR/cKIT/RET in bortezomib Resistant human RPMI-8226 cells assessed as reduction of cell growth incubated for 72 hrs by CellTiter 96 aqueous one solution cell proliferation assay. It counts as cell-based. As to conditions: Bortezomib-resistant RPMI-8226, 72 h.
Experiment [10] is described as follows: Ratio of IC50 for inhibition of VEGFR3/PDGFR/cKIT/RET in human ANBL6 cells assessed as reduction of cell viability to IC50 for inhibition of VEGFR3/PDGFR/cKIT/RET in human ANBL6/BR resistant cells assessed as reduction of cell viability. The note with it: condition multiple myeloma.
Experiment [11] can be described thus: Inhibition of VEGFR3/PDGFR/cKIT/RET in human U-266 cells assessed as reduction of cell growth incubated for 72 hrs by CellTiter 96 aqueous one solution cell proliferation assay. It counts as cell-based. The note with it: U-266, 72 h.
A short description of experiment [12]: Ratio of IC50 for inhibition of VEGFR1/PDGFR/cKIT/RET in human ANBL6 cells assessed as reduction of cell viability to IC50 for inhibition of VEGFR1/PDGFR/cKIT/RET in human ANBL6/BR resistant cells assessed as reduction of cell viability. As to conditions: condition multiple myeloma.
Experiment [13] in a line: Ratio of IC50 for inhibition of VEGFR3/PDGFR/cKIT/RET in human RPMI-8226 cells assessed as reduction of cell viability to IC50 for inhibition of VEGFR3/PDGFR/cKIT/RET in human RPMI-8226/BR resistant cells assessed as reduction of cell viability. The note with it: condition multiple myeloma.
Experiment [14] is described as follows: Inhibition of VEGFR2/PDGFR/cKIT/RET in human ANBL-6 cells assessed as reduction of cell growth incubated for 72 hrs by CellTiter 96 aqueous one solution cell proliferation assay. It counts as cell-based. The note with it: ANBL-6, 72 h.
The nature of experiment [15]: Inhibition of VEGFR2/PDGFR/cKIT/RET in Melphalan Resistant human RPMI-8226 cells assessed as reduction of cell growth incubated for 72 hrs by CellTiter 96 aqueous one solution cell proliferation assay. As to conditions: Melphalan-resistant RPMI-8226 cell. It counts as cell-based.
Experiment [16] is described as follows: Inhibition of VEGFR1/PDGFR/cKIT/RET in human bortezomib-resistant ANBL6 cells assessed as reduction of cell growth incubated for 72 hrs by CellTiter 96 aqueous one solution cell proliferation assay. In kind it is cell-based.
A short description of experiment [17]: Inhibition of VEGFR1/PDGFR/cKIT/RET in Melphalan Resistant human RPMI-8226 cells assessed as reduction of cell growth incubated for 72 hrs by CellTiter 96 aqueous one solution cell proliferation assay. In kind it is cell-based. The note with it: Melphalan-resistant RPMI-8226 cell.
Experiment [18] is described as follows: Inhibition of VEGFR1/PDGFR/cKIT/RET in bortezomib Resistant human RPMI-8226 cells assessed as reduction of cell growth incubated for 72 hrs by CellTiter 96 aqueous one solution cell proliferation assay. It counts as cell-based. The note with it: Bortezomib-resistant RPMI-8226, 72 h.
The nature of experiment [19]: Inhibition of VEGFR1/PDGFR/cKIT/RET in human RPMI-8226 cells assessed as reduction of cell growth incubated for 72 hrs by CellTiter 96 aqueous one solution cell proliferation assay. In kind it is cell-based. As to conditions: RPMI-8226, 72 h.
Experiment [20] is described as follows: Inhibition of VEGFR3/PDGFR/cKIT/RET in human ANBL-6 cells assessed as reduction of cell growth incubated for 72 hrs by CellTiter 96 aqueous one solution cell proliferation assay. In kind it is cell-based. As to conditions: ANBL-6, 72 h.
A short description of experiment [21]: Inhibition of VEGFR3/PDGFR/cKIT/RET in human bortezomib-resistant ANBL6 cells assessed as reduction of cell growth incubated for 72 hrs by CellTiter 96 aqueous one solution cell proliferation assay. It counts as cell-based.
Experiment [22] in a line: Inhibition of VEGFR3/PDGFR/cKIT/RET in human RPMI-8226 cells assessed as reduction of cell growth incubated for 72 hrs by CellTiter 96 aqueous one solution cell proliferation assay. It counts as cell-based. The note with it: RPMI-8226, 72 h.
The nature of experiment [23]: Ratio of IC50 for inhibition of VEGFR3/PDGFR/cKIT/RET in human RPMI-8226 cells assessed as reduction of cell viability to IC50 for inhibition of VEGFR3/PDGFR/cKIT/RET in human melphalan-resistant RPMI-8226 cells assessed as reduction of cell viability. The note with it: time 72 hrs; condition multiple myeloma.
The nature of experiment [24]: Inhibition of VEGFR2/PDGFR/cKIT/RET in human bortezomib-resistant ANBL6 cells assessed as reduction of cell growth incubated for 72 hrs by CellTiter 96 aqueous one solution cell proliferation assay. In kind it is cell-based.
Experiment [25] can be described thus: Ratio of IC50 for inhibition of VEGFR1/PDGFR/cKIT/RET in human RPMI-8226 cells assessed as reduction of cell viability to IC50 for inhibition of VEGFR1/PDGFR/cKIT/RET in human RPMI-8226/BR resistant cells assessed as reduction of cell viability. The note with it: condition multiple myeloma.
The nature of experiment [26]: Inhibition of VEGFR1/PDGFR/cKIT/RET in human ANBL-6 cells assessed as reduction of cell growth incubated for 72 hrs by CellTiter 96 aqueous one solution cell proliferation assay. As to conditions: ANBL-6, 72 h. In kind it is cell-based.
Experiment [27] in a line: Inhibition of VEGFR1/PDGFR/cKIT/RET in human U-266 cells assessed as reduction of cell growth incubated for 72 hrs by CellTiter 96 aqueous one solution cell proliferation assay. In kind it is cell-based. The note with it: U-266, 72 h.
A short description of experiment [28]: cells. As to conditions: Homo sapiens, Melphalan-resistant RPMI-8226 cell, 72 h.
A short description of experiment [29]: cells. As to conditions: Homo sapiens, U-266, 72 h.
The nature of experiment [30]: Ratio of IC50 for inhibition of hedgehog in human RPMI-8226 cells assessed as reduction of cell viability to IC50 for inhibition of hedgehog in human RPMI-8226/BR resistant cells assessed as reduction of cell viability. As to conditions: condition multiple myeloma.
Experiment [31] in a line: cells. As to conditions: Homo sapiens, Bortezomib-resistant RPMI-8226, 72 h.
A short description of experiment [32]: cells. The note with it: Homo sapiens, ANBL-6, 72 h.
The nature of experiment [33]: Ratio of IC50 for inhibition of hedgehog in human RPMI-8226 cells assessed as reduction of cell viability to IC50 for inhibition of hedgehog in human melphalan-resistant RPMI-8226 cells assessed as reduction of cell viability. As to conditions: time 72 hrs; condition multiple myeloma.
Experiment [34] is described as follows: cells. As to conditions: Homo sapiens, Bortezomib-resistant ANBL6 cell, 72 h.
Experiment [35] can be described thus: cells. As to conditions: Homo sapiens, RPMI-8226, 72 h.
The nature of experiment [36]: Ratio of IC50 for inhibition of hedgehog in human ANBL6 cells assessed as reduction of cell viability to IC50 for inhibition of hedgehog in human ANBL6/BR resistant cells assessed as reduction of cell viability. As to conditions: condition multiple myeloma.

As for `CC1(C)CNc2cc(NC(=O)c3cccnc3NCc3ccncc3)ccc21` [MOTESANIB], the “Ratio IC50” value in experiment [1], in [3], in [7], in [8], in experiment [10] and in [12] was 1 each time. For the same molecule, the “Ratio IC50” value in [13], in experiment [23] and in experiment [25] was 1 in each case. Also, the half-inhibitory concentration (IC50) in experiment [2], in experiment [4], in [5], in experiment [6], in [9] and in experiment [11] was 10 µM in each case. Also, the IC50 in experiment [14], in experiment [15], in [16], in [17], in experiment [18] and in [19] was 10 µM throughout. For the same molecule, the IC50 in [20], in experiment [21], in experiment [22], in experiment [24], in experiment [26] and in experiment [27] was 10 µM each time.

Consider `CS(=O)(=O)c1ccc(C(=O)Nc2ccc(Cl)c(-c3ccccn3)c2)c(Cl)c1` [VISMODEGIB], for which the half-maximal inhibitory concentration (IC50) in the experiment “cells [28]”, in “cells [29]”, in the experiment “cells [31]”, in the experiment “cells [32]”, in the experiment “cells [34]” and in “cells [35]” was 10 µM in each case. For the same molecule, the “Ratio IC50” value in [30], in experiment [33] and in experiment [36] was 1 in each case.
